# According to ChEMBL document CHEMBL3425433, “Discovery of bicyclic pyrazoles as class III histone deacetylase SIRT1 and SIRT2 inhibitors” (Bioorg Med Chem Lett, 2015):
# pIC50: −log10 of the molar value. Calls of active or inactive are those of the source. The rule behind the calls is not given here.
# Legend:
# [1] = biological target: T1, Protein deacetylase HDAC6 (Homo sapiens, UniProt Q9UBN7); experiment: Inhibition of HDAC6 (unknown origin)
# T1 sequence (Q9UBN7 whole entry): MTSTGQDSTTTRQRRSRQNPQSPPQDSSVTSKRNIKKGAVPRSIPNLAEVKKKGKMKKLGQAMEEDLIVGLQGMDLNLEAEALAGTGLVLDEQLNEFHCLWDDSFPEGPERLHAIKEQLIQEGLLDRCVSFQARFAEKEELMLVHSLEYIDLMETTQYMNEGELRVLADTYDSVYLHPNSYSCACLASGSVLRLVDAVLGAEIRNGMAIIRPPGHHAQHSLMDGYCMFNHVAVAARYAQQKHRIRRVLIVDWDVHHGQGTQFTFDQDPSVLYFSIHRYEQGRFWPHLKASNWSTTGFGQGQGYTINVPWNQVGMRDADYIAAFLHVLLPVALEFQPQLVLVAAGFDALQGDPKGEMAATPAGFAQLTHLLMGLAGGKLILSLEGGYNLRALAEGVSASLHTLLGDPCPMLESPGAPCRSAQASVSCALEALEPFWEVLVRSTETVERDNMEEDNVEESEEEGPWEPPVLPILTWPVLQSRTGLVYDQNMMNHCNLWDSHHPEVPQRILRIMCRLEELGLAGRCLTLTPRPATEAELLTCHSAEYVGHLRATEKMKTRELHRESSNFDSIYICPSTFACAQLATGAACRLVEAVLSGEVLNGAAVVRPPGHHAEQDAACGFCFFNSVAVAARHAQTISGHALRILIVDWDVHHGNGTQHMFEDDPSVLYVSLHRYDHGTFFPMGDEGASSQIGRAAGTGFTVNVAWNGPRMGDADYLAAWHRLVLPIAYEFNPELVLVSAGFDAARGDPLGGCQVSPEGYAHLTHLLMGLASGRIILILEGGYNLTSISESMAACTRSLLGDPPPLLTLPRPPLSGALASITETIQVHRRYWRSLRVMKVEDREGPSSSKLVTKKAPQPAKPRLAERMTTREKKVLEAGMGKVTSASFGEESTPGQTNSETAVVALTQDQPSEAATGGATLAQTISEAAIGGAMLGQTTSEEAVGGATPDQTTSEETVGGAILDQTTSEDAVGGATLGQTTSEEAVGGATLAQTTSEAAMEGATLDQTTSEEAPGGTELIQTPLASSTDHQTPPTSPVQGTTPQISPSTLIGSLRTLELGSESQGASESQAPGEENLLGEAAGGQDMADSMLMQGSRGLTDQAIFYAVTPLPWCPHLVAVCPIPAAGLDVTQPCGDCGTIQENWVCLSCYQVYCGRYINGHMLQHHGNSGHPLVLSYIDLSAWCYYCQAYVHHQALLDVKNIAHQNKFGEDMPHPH
# [2] = biological target: T2, Histone deacetylase 7 (Homo sapiens) (UniProt Q8WUI4); experiment: Inhibition of HDAC7 (unknown origin) at 20 uM
# T2 sequence (whole entry): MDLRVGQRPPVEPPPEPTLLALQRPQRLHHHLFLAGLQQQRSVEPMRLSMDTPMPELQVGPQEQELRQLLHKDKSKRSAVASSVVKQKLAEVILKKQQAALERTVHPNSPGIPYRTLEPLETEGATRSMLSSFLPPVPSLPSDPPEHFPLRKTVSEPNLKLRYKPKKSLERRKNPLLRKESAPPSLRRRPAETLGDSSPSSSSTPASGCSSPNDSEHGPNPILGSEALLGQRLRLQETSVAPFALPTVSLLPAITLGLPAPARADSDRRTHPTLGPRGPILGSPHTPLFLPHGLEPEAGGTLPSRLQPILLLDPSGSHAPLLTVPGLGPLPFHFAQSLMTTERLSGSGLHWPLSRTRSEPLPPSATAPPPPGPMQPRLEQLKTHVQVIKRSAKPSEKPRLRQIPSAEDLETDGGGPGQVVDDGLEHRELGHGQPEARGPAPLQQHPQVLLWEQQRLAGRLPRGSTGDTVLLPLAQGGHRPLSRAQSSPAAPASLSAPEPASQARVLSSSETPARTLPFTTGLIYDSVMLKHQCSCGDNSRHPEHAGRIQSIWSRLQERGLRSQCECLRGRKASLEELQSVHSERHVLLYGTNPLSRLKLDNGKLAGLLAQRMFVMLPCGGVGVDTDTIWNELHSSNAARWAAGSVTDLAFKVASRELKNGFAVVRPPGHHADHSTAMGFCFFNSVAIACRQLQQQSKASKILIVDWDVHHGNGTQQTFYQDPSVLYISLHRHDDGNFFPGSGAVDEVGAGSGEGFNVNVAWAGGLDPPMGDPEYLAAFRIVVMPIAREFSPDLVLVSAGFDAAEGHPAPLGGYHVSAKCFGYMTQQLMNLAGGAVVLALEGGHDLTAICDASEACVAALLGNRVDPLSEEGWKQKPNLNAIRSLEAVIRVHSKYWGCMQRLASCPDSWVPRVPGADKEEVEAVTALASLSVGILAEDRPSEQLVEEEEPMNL
# [3] = biological target: T3, Histone deacetylase 8 (Homo sapiens, UniProt Q9BY41); experiment: Inhibition of HDAC8 (unknown origin)
# T3 sequence (Q9BY41 whole entry): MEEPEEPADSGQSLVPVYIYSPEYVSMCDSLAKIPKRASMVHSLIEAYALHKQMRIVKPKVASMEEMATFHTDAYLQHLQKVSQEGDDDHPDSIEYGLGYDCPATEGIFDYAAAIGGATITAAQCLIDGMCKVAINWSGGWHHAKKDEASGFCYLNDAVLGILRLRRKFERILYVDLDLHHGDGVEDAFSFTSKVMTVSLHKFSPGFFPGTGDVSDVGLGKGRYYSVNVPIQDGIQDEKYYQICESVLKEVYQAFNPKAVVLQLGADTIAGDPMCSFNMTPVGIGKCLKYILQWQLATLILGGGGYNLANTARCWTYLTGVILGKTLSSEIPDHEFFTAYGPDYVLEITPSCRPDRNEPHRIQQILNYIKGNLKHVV
structure (smiles),measurement,setting,value
NC(=O)C1CCCc2c(-c3ccc(Cl)c(Cl)c3)n[nH]c21 (racemic),pIC50,[1],< 5.00
same,inhibition,[2],inactive
same,pIC50,[3],< 5.00
